# Measured values taken from patent US20190352288A1, “MATRIX METALLOPROTEINASE (MMP) INHIBITORS AND METHODS OF USE THEREOF” (Foresee Pharmaceuticals Co., Ltd., priority 2018, published 2019).
# Molecular target: T1, recombinant human MMP-12 catalytic domain (Homo sapiens, UniProt P39900)
# T1 construct: recombinant human MMP-12 catalytic domain; purchased Enzo BML-SE138
# Assay: MMP-12 inhibitory assay (fluorogenic substrate cleavage)
# Assay type: biochemical
# Details: readout at 30 minutes, 37° C., Table 1
# Description: The inhibitory effect of compounds on the rate of cleaving fluorogenic MMP substrate (Enzo, BML-P128) by recombinant human MMP-12 catalytic domain (Enzo, BML-SE138) was carried out by methods known in the art. Briefly, to each well of a 96-well black opaque plate, all the reagents were sequentially added by pipetting, and the final reaction contained 4 nM of recombinant human MMP-12 catalytic domain, 4 μM of fluorogenic MMP substrate, and various concentrations (0.15 nM to 10,000 nM) of tested compound dilutions in HEPES buffer (pH 7.5) containing 10 mM of CaCl2), 0.01% Brij® 35 (polyoxyethylene (23) lauryl ether), and 0.1 mg/ml of BSA.
# The enzyme and compounds were pre-incubated on a shaker to mix in wells. After an hour of mixing, fluorogenic substrate was added to each well. Reaction without enzyme was used as a blank control in the plate. The plate was then fed into a plate reader to measure fluorescence intensity at Excitation/Emission wavelengths of 340 nm/440 nm every 10 mins for at least 1 hour at 37° C. The IC50 of each compound in MMP-12 inhibition was determined by using a readout obtained at time point 30 minutes.
# T1 sequence (P39900 106-268 limits assumed): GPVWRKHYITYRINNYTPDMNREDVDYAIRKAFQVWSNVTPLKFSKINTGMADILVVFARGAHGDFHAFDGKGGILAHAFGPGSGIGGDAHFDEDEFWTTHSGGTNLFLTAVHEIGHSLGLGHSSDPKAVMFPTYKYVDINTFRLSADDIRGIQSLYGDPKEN
row,SMILES,IC50
1,NC(=O)c1ccc(COc2ccc(Sc3ccncc3C3NC(=O)NC3=O)cc2)cc1 (stereo not shown) [PC-37],100 to 1000 nM
2,Cc1cncc(COc2ccc(Sc3ccncc3C3NC(=O)NC3=O)cc2)c1 (stereo not shown) [PC-17],100 to 1000 nM
3,Cc1cccc(COc2ccc([S+]([O-])c3ccncc3C3NC(=O)NC3=O)cc2)c1 (stereo not shown) [PC-5],100 to 1000 nM
4,Cc1cc(CCc2ccc(Oc3ccncc3C3NC(=O)NC3=O)cc2)ccn1 (stereo not shown) [PC-62],100 to 1000 nM
5,Cc1cccc(COc2ccc(S(=O)(=O)c3ccncc3C3NC(=O)NC3=O)cc2)c1 (stereo not shown) [PC-6],100 to 1000 nM
6,Cc1cccc(COc2ccc([S+]([O-])c3ccccc3C3NC(=O)NC3=O)cc2)c1 (stereo not shown) [OC-2],100 to 1000 nM
7,Cc1cc(COc2ccc(Sc3ccncc3C3NC(=O)NC3=O)cn2)ccn1 (stereo not shown) [PC-61],100 to 1000 nM
8,CC(C)COc1cc(COc2ccc(Sc3ccncc3C3NC(=O)NC3=O)cc2)ccn1 (stereo not shown) [PC-33],100 to 1000 nM
9,O=C1NC(=O)C(c2cnccc2Sc2ccc(OCc3ccnc(O)c3)cc2)N1 (stereo not shown) [PC-35],100 to 1000 nM
10,Cc1cc(COc2ccc(Sc3ccncc3C3NC(=O)N(C)C3=O)cc2)ccn1 (stereo not shown) [PC-41],100 to 1000 nM
11,Cc1cncc(COc2ccc(Sc3cnccc3C3NC(=O)NC3=O)cc2)c1 (stereo not shown) [PC-19],100 to 1000 nM
12,CCOc1cccc(COc2ccc(Sc3ccsc3C3NC(=O)NC3=O)cc2)c1 (stereo not shown) [TC2],100 to 1000 nM
13,CC(C)Oc1cccc(COc2ccc(Sc3ccsc3C3NC(=O)NC3=O)cc2)c1 (stereo not shown) [TC3],100 to 1000 nM

# The next lines start with the values.
row,IC50,SMILES
1,100 to 1000 nM,COc1ccc(CN2C(=O)NC(c3cnccc3Sc3ccc(OCc4ccnc(C)c4)cc3)C2=O)cc1 (stereo not shown) [PC-55]
2,10 to 100 nM,Cc1cccc(COc2ccc(Sc3cc[n+](O)cc3C3NC(=O)NC3=O)cc2)c1 (stereo not shown) [OC-3]
3,10 to 100 nM,Cc1cccc(COc2ccc(Sc3ncoc3C3NC(=O)NC3=O)cc2)c1 (stereo not shown) [OC-10]
4,10 to 100 nM,Cc1cc(CCc2ccc(Sc3ccncc3C3NC(=O)NC3=O)cc2)ccn1 (stereo not shown) [PC-57]
5,10 to 100 nM,O=C1NC(=O)C(c2ccncc2Sc2ccc(OCc3ccc(CO)cc3)cc2)N1 (stereo not shown) [PC-14]
6,10 to 100 nM,Cc1cc(COc2ccc(Sc3ccncc3C3NC(=O)NC3=O)cc2Cl)ccn1 (stereo not shown) [PC-49]
7,10 to 100 nM,Cc1cccc(COc2ccc(Sc3ncccc3C3NC(=O)NC3=O)cc2)c1 (stereo not shown) [PC-1]
8,10 to 100 nM,Cc1cccc(COc2ccc(Sc3cnccc3C3NC(=O)NC3=O)cc2)c1 (stereo not shown) [PC-4]
9,10 to 100 nM,Cc1cc(CN(C)c2ccc(Sc3ccncc3C3NC(=O)NC3=O)cc2)ccn1 (stereo not shown) [PC-58]
10,10 to 100 nM,Cc1cc(COc2ccc(Oc3ccncc3C3NC(=O)NC3=O)cc2)ccn1 (stereo not shown) [PC-27]
11,10 to 100 nM,CCOc1cc(COc2ccc(Sc3ccncc3C3NC(=O)NC3=O)cc2)ccn1 (stereo not shown) [PC-31]
12,10 to 100 nM,Cc1cccc(COc2ccc(Sc3ccncc3C3NC(=O)NC3=O)cc2)c1 (stereo not shown) [PC-2]
13,10 to 100 nM,COc1cc(COc2ccc(Sc3ccncc3C3NC(=O)NC3=O)cc2)ccn1 (stereo not shown) [PC-30]
14,10 to 100 nM,O=C1NC(=O)C(c2cnccc2Sc2ccc(OCc3ccc(CO)cc3)cc2)N1 (stereo not shown) [PC-7]
15,10 to 100 nM,Cc1cccc(COc2ccc(Sc3cnn(C)c3C3NC(=O)NC3=O)cc2)c1 (stereo not shown) [OC-5]
